Measurements as given in US20040235866A1, “Lymphocytic activation inhibitor and remedial agent for autoimmune disease” (priority 2001, published 2004).
Where two headings read alike, the source gives them in different places.

Legend:
[1] = test system: spleen lymphocytes cultured with PLP139-151; assay: Inhibition effect for lymphocyte activation (antigen-specific division, 3H-thymidine uptake); type: cell-based; conditions: female SJL/J mouse spleen lymphocytes, PLP139-151 stimulation, 5 days culture, read-out: IC 50 (inhibition of antigen-specific division of the lymphocytes)
Source text: Immunizing a mounse with a partial peptide of a proteolipid protein (PLP), a central myelin protein, induces a chronic encephalomyelitis therein. Sampling lymphocytes from the spleen of the mouse and stimulating by an antigen in vitro allow the induction of antigen-specific activation and division of the lymphocyte. The effect of a drug to the reaction was examined to evaluate the inhibition effect of the drug for lymphocyte activation. Specifically, a female SJL/J mouse was immunized with an adjuvant containing a PLP partial peptide (PLP139-151) under ether anesthesia. On the day of immunization and 2 days thereafter, deactivated Bordetella pertussis (one billion/mouse) was intravenously administered. On 7th or 8th day after the immunization, the mouse was killed by ether anesthesia and then the spleen thereof was extracted to isolate spleen lymphocytes. […] The compound numbers are the same as those described in the previous list (hereinafter, the same).

[2] = test system: experimental encephalomyelitis model (PLP peptide p139-151 immunized mouse); assay: Effect in an experimental encephalomyelitis model; type: in vivo; conditions: female SJL/J mouse, 200 mg/kg orally from 5th day to 12th day after initial sensitization, FIG. 2
Description: 100 μl of a Freund's complete adjuvant (Difco, containing 0.6 mg/ml of M. tuberculosis H37Ra) containing the PLP peptide (p139-151, Toray Research Center) was subcutaneously injected to a female SJL/J mouse in the back thereof under ether anesthesia for immunization (initial sensitization). Two days after, deactivated Bordetella pertussis was intravenously injected in an amount of about one billion per mouse. Seven days after, immunization was conducted again with the antigen. Over several weeks thereafter, abnormalities in limbs, a tail, and righting reflexes were graded into scored levels and recorded. The subjective compound was orally administered in an amount of 200 mg/kg from 5th day to 12th day after the initial sensitization. In experiments, 12 mice were used for each of a control group and a drug-administered group.
Note that, the experimental encephalomyelitis model described above is a model in which a lymphocyte activated by reacting with an immunized PLP peptide causes an immunoreaction to induce encephalomyelitis, and is widely recognized as a model for evaluating a pharmacological effect of a compound having a lymphocyte activation inhibition effect (e.g., Agents and Actions, 27, 351-355 (1989); and Agents and Actions, 35, 79-84 (1992)).

[3] = test system: mice; assay: Successive 15-day administration to mice (toxicity observation); type: in vivo; conditions: 100 mg/kg and 200 mg/kg successively for 15 days
Source text: It is thus considered that the compound represented by the general formula (I) has low toxicity.

[4] = test system: mouse collagen-induced arthritis; assay: Effect on mouse collagen-induced arthritis; type: in vivo; conditions: DBA/1JN male mouse, FIG. 1
Description: A DBA/1JN male mouse (7 weeks of age) was sensitized by intracutaneously injecting in the tail part thereof with 0.1 ml of an emulsion solution obtained by mixing a 0.3% bovine-derived type II collagen solution with the same amount of a Freund's complete adjuvant. After 3 weeks after initial sensitization, a booster was conducted in a similar way to cause arthritis. The subjective compound was made into a solution (5 mg/ml) according to a general method, and the day of the booster and 3 days thereafter, the solution was intravenously administered in an amount of 10 ml/kg (50 mg/kg). In experiments, 8 mice were used for each of a control group and a drug-administered group. The condition of arthritis was evaluated macroscopically on limbs and graded into 5 score levels (0; normal, 1; flare on a finger joint, 2; slight edema on an entire leg, 3; edema on an entire leg, and 4; severe edema on an entire leg), to be shown as a total sum. […] The effect lasted even after the second administration and the inhibition effect was recognized even 36 days after the initial sensitization, i.e., 12 days after administration (FIG. 1). […]

| Structure (SMILES) | IC50 ([1]; Mus musculus, Lymphocyte) [µM] | further results |
| --- | --- | --- |
| Nc1ccc(S(=O)(=O)Nc2cccc3c(Cl)c[nH]c23)cc1 [Compound 3, 4-Amino-N-(3-chloro-1H-indol-7-yl)benzenesulfonamide] | 2.27 |  |
| CS(=O)(=O)Nc1ccc(S(=O)(=O)Nc2cccc3c(Cl)c[nH]c23)cc1 [Compound 4, N-(3-Chloro-1H-indol-7-yl)-4-(methanesulfonamido)-benzenesulfonamide] | 1.43 |  |
| N#Cc1ccc(S(=O)(=O)Nc2cccc3c(Cl)c[nH]c23)cc1 [Compound 10, N-(3-Chloro-1H-indol-7-yl)-4-cyanobenzenesulfonamide] |  | Onset of abnormality (limbs, tail, righting reflexes score) [2]: delayed expression of abnormality; Severity of abnormality (limbs, tail, righting reflexes score) [2]: alleviated the severity; IC50 [1]: 0.59 µM; Body weight [3]: dose-dependent weight increases; Toxicity observation [3]: no observation showing toxicity |
| N#Cc1c[nH]c2c(NS(=O)(=O)c3cccc(Cl)c3)cccc12 [Compound 17, 3-Chloro-N-(3-cyano-1H-indol-7-yl)benzenesulfonamide] | 0.44 | Onset of abnormality (limbs, tail, righting reflexes score) [2]: delayed expression of abnormality; Severity of abnormality (limbs, tail, righting reflexes score) [2]: alleviated the severity; Body weight [3]: dose-dependent weight increases; Toxicity observation [3]: no observation showing toxicity |
| NS(=O)(=O)c1ccc(S(=O)(=O)Nc2cccc3c(Cl)c[nH]c23)cc1 [Compound 19, N-(3-Chloro-1H-indol-7-yl)-4-sulfamoylbenzenesulfonamide] | 1.83 | Effect on crisis and development of arthritis (arthritis score, total sum) ([4]; 50 mg/kg intravenously on the day of the booster and 3 days thereafter): obvious inhibition effect for the crisis and development of arthritis; Duration of the inhibition effect on arthritis, days after the initial sensitization ([4]; 50 mg/kg intravenously, i.e. 12 days after administration): ≥ 36 days |
| N#Cc1ccc(S(=O)(=O)Nc2cccc3c(Cl)c[nH]c23)cc1 [Compound 28, 4-Cyano-N-(3-chloro-1H-indol-7-yl)benzenesulfonamide] |  | IC50 [1]: 2.86 µM |
| NC(=O)c1ccc(S(=O)(=O)Nc2cccc3c(Cl)c[nH]c23)cc1 [Compound 29, 4-Carbamoyl-N-(3-chloro-1H-indol-7-yl)benzenesulfonamide] | 2.02 |  |
| Nc1ccncc1S(=O)(=O)Nc1cccc2c(Cl)c[nH]c12 [Compound 33, 4-Amino-N-(3-chloro-1H-indol-7-yl)-3-pyridinesulfonamide] | 0.47 |  |
| NS(=O)(=O)CCc1ccc(S(=O)(=O)Nc2cccc3c(Cl)c[nH]c23)cc1 [Compound 35, N-(3-Chloro-1H-indol-7-yl)-4-(2-sulfamoylethyl)-benzenesulfonamide] | 0.67 |  |
| CS(=O)(=O)CCc1ccc(S(=O)(=O)Nc2cccc3c(Cl)c[nH]c23)cc1 [Compound 36, N-(3-Chloro-1H-indol-7-yl)-4-[2-(methylsulfonyl)ethyl]-benzenesulfonamide] | 0.78 |  |
| N#Cc1c[nH]c2c(NS(=O)(=O)c3ccc(N)nc3)cccc12 [Compound 37, 6-Amino-N-(3-cyano-1H-indol-7-yl)-3-pyridinesulfonamide] | 0.64 |  |
| N#Cc1cccc(S(=O)(=O)Nc2cccc3c(C#N)c[nH]c23)c1 [Compound 51, 3-Cyano-N-(3-cyano-1H-indol-7-yl)benzenesulfonamide] | 0.62 | Body weight [3]: dose-dependent weight increases; Toxicity observation [3]: no observation showing toxicity |
| CS(=O)(=O)NCc1ccc(S(=O)(=O)Nc2cccc3c(Cl)c[nH]c23)cc1 [Compound 53, N-(3-Chloro-1H-indol-7-yl)-4-[(methanesulfonamido)methyl]-benzenesulfonamide] | 0.74 |  |
| CS(=O)(=O)NCCc1ccc(S(=O)(=O)Nc2cccc3c(Cl)c[nH]c23)cc1 [Compound 62, N-(3-Chloro-1H-indol-7-yl)-4-[2-(methanesulfonamido)ethyl]-benzensulfonamide] | 0.58 |  |
| CCNS(=O)(=O)c1ccc(S(=O)(=O)Nc2cccc3c(Cl)c[nH]c23)cc1 [Compound 69, N-(3-Chloro-1H-indol-7-yl)-4-(N-ethylsulfamoyl)-benzenesulfonamide] | 0.59 |  |
| CCS(=O)(=O)Nc1ccc(S(=O)(=O)Nc2cccc3c(Cl)c[nH]c23)cc1 [Compound 70, N-(3-Chloro-1H-indol-7-yl)-4-(ethanesulfonamido)-benzenesulfonamide] | 1.4 |  |
| CNC(=O)c1ccc(S(=O)(=O)Nc2cccc3c(Cl)c[nH]c23)cc1 [Compound 72, N-(3-Chloro-1H-indol-7-yl)-4-(N-methylcarbamoyl)-benzenesulfonamide] | 1.81 |  |
| NS(=O)(=O)Cc1ccc(S(=O)(=O)Nc2ccc(Cl)c3c(Cl)c[nH]c23)cc1 [Compound 77, N-(3,4-Dichloro-1H-indol-7-yl)-4-(sulfamoylmethyl)-benzenesulfonamide] | 0.98 |  |
| CC(=O)N(C)c1ccc(S(=O)(=O)Nc2cccc3c(Cl)c[nH]c23)cc1 [Compound 79, N-(3-Chloro-1H-indol-7-yl)-4-(N-methylacetamido)-benzenesulfonamide] | 0.36 |  |
| Cc1ccc(NS(=O)(=O)c2cccc(C#N)c2)c2[nH]cc(C#N)c12 [Compound 94, 3-Cyano-N-(3-cyano-4-methyl-1H-indol-7-yl)-benzenesulfonamide] | 0.25 | Body weight [3]: dose-dependent weight increases; Toxicity observation [3]: no observation showing toxicity |
